From US20240384268A1, “Oligonucleotides” (Hudson Institute of Medical Research, priority 2021, published 2024)
In the oligonucleotide strings, read from the 5' end, every base follows the letter of its sugar. An asterisk marks phosphorothioate; unmarked linkages are phosphodiester. Other units and linkages are bracketed, terminal groups are in braces. A string of capitals states the bases alone. d = 2'-deoxy (DNA); m = 2'-O-methyl

Columns and labels:
TLR8 = molecular target: T1, TLR8 (Homo sapiens, UniProt Q9NR97); experiment: R848-driven IP-10 production in THP-1 cells (TLR8); format: cell-based; design: expressed in transfected cells; settings: 3mer 2'OMe ASO at 1 uM; raw values, Ligand only = 355.752, NT = 134.831;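 note: IP-10 by ELISA in supernatant after 7 h R848 stimulation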
T1 sequence (Q9NR97 27-1041): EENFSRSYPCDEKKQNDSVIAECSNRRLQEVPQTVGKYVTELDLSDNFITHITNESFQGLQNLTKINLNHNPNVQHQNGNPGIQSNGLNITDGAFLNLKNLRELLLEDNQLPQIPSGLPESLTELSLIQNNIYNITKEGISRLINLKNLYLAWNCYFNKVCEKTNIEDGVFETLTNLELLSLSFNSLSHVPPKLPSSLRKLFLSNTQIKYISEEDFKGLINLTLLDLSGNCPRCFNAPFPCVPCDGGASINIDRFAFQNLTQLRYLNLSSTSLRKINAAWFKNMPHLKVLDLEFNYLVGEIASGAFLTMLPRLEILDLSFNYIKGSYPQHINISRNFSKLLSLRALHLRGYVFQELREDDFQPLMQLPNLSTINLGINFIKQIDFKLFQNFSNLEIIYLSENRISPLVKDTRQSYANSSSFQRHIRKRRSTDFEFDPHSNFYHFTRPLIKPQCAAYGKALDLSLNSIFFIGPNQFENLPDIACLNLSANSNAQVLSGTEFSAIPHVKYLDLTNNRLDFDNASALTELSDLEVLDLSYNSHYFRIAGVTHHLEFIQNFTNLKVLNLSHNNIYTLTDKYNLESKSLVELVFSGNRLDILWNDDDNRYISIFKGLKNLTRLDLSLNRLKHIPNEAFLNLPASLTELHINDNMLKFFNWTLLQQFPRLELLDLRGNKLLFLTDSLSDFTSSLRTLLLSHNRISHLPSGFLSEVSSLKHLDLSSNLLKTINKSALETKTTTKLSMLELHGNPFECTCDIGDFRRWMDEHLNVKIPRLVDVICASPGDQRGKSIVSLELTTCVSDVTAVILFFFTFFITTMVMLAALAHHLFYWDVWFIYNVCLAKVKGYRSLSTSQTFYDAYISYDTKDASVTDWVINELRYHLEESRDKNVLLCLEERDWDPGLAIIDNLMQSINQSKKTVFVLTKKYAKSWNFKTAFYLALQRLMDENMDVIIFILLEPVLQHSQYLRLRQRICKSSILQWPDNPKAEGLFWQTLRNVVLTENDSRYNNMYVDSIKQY

TLR3 = molecular target: T2, TLR3 (Homo sapiens, UniProt O15455); experiment: HEK-TLR3 NF-κB-luciferase reporter, poly(I:C) stimulation; format: cell-based; design: host or cells: HEK-Blue hTLR3 (HEK293); settings: for IC50: 30-50 min before 0.5 μg/ml pIC overnight, read-out: IC50 (polyI:C sensing by TLR3)
T2 sequence (O15455 24-904): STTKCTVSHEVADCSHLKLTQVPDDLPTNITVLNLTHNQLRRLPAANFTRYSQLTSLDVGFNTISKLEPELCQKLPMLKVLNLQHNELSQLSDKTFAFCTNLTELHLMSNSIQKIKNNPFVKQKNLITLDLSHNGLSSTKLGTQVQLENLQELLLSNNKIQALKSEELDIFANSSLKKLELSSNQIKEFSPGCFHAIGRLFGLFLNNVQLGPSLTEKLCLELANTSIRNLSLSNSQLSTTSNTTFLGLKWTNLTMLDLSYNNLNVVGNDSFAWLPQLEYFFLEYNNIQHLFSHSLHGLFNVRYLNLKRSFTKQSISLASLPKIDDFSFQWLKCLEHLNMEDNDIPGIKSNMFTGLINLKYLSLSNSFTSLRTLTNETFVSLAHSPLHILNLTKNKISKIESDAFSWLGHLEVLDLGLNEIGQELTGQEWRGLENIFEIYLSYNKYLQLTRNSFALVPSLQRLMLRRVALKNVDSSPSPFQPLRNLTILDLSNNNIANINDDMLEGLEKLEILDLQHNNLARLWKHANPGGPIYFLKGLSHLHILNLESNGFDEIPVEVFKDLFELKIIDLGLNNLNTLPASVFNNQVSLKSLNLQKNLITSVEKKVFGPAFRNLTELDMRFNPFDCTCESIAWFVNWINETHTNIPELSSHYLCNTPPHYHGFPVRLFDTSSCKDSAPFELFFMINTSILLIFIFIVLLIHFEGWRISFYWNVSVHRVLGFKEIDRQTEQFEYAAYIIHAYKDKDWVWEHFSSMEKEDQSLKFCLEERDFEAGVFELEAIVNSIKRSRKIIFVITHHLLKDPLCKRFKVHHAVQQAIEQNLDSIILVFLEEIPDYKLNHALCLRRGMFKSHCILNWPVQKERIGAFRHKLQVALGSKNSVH

[1] = 3-mers DNA PS 45 min, then 500 ng/ml polyI:C overnight, NF-κB-luciferase normalised to polyI:C only (Ligand 1.000, NT 0.000)
[2] = 3mer 2'OMe ASO at 2 uM, value relative to Ligand only = 1.000, NT = 0.000

Substance | TLR8 1 uM (TLR8) | TLR3 2uM (TLR3; [1]) | TLR3 2uM (TLR3; [2]) | inhibition of polyI:C sensing by TLR3 at 500 nM (in words) (TLR3; 500 nM ASOs/ODNs, poly(I:C) 1 μg/ml) | IC50 (TLR3) [nM]
dG*dC*dC [GCC] | 209.536 | 0.895 | 0.884 |  | 
dA*dG*dA (DNA AGA; listed as DNA, chemistry not fully specified) | 214.450 | 0.849 | 0.829 |  | 
mGmUmA (GUA; all 2'-O-methyl, backbone not given here; further chemistry not fully specified) [shortMut1-3b] | 133.537 |  | 0.839 |  | 
CUC (mC*mU*mC) | 245.566 |  | 0.874 |  | 
T*T*A* G*G*G* T*T*A* G*G*G* T*T*A* G*G*G* T*T*A* G*G*G [A151, reference compound] |  |  |  | only partially reduced polyL:C-dependent TLR3 activation | > 750
UAC (mU*mA*mC) | 254.486 |  | 0.813 |  | 
CUA (mC*mU*mA) | 243.564 |  | 0.851 |  | 
dG*dC*dG [GCG] | 290.409 | 0.867 | 0.830 |  | 
mUmGmA (mU*mG*mA) [UGA, 3-mer 2′OMe PS oligo] | 267.234 |  | 0.806 |  | 
dC*dA*dA (CAA; listed as DNA, chemistry not fully specified) | 373.157 | 0.909 | 0.771 |  | 
AUG (mA*mU*mG) | 151.847 |  | 0.859 |  | 
mAmUmC (mA*mU*mC) [AUC, 3-mer 2′OMe PS oligo] | 181.793 |  | 0.768 |  | 
dA*dA*dC (DNA AAC; listed as DNA, chemistry not fully specified) | 218.889 | 0.861 | 0.901 |  | 
dC*dC*dC (CCC; listed as DNA, chemistry not fully specified) | 181.399 | 0.811 | 0.933 |  | 
AUU (mA*mU*mU) | 274.683 |  | 0.809 |  | 
CGU (mC*mG*mU) | 346.350 |  | 0.833 |  | 
UGU (mU*mG*mU) | 331.923 |  | 0.967 |  | 
mGmAmU (mG*mA*mU) [GAU, 3-mer 2′OMe PS oligo] | 147.162 |  | 0.771 |  | 
UCC (mU*mC*mC) | 346.575 |  | 0.761 |  | 
UCU (mU*mC*mU) | 371.961 |  | 0.804 |  | 
dC*dC*dA (CCA; listed as DNA, chemistry not fully specified) | 181.239 | 0.763 | 0.917 |  | 
mUmCmG (antisense mU*mC*mG) [660-3b] | 746.272 |  | 0.850 |  | 

Substance | TLR8 1 uM (TLR8) | TLR3 2uM (TLR3; [1]) | TLR3 2uM (TLR3; [2]) | inhibition of polyI:C sensing by TLR3 at 500 nM (in words) (TLR3; 500 nM ASOs/ODNs, poly(I:C) 1 μg/ml) | IC50 (TLR3) [nM]
UUC (mU*mU*mC) | 213.878 |  | 1.023 |  | 
GCU (mG*mC*mU) | 193.279 |  | 0.808 |  | 
ACU (antisense mA*mC*mU) | 250.907 |  | 1.062 |  | 
dA*dA*dA (DNA AAA; listed as DNA, chemistry not fully specified) | 225.029 | 1.065 | 1.026 |  | 
mGmUmU (mG*mU*mU) [GUU, 3-mer 2′OMe PS oligo] | 166.278 |  | 0.825 |  | 
UUU (mU*mU*mU) | 307.213 |  | 0.970 |  | 
UAU (mU*mA*mU) | 213.758 |  | 0.915 |  | 
mCmUmU (antisense mC*mU*mU) [660-3] | 167.148 |  | 0.846 |  | 
CAU (mC*mA*mU) | 388.191 |  | 0.866 |  | 
UUA (mU*mU*mA) | 350.207 |  | 1.081 |  | 
UAA (mU*mA*mA) | 224.188 |  | 0.790 |  | 
mGmUmC (mG*mU*mC) [GUC, 3-mer 2′OMe PS oligo] | 131.948 |  | 0.752 |  | 
mUmGmG (mU*mG*mG) [UGG, 3-mer 2′OMe PS oligo] | 527.575 |  | 0.764 |  | 
UAG (mU*mA*mG) | 226.441 |  | 0.940 |  | 
AGU (antisense mA*mG*mU) | 270.256 |  | 0.829 |  | 
dC*dG*dA (CGA; listed as DNA, chemistry not fully specified) | 504.099 | 0.823 | 0.780 |  | 
UGC (mU*mG*mC) | 278.054 |  | 0.903 |  | 
dA*dA*dG (DNA AAG; listed as DNA, chemistry not fully specified) | 179.302 | 0.825 | 0.616 |  | 
dC*dC*dG (CCG; listed as DNA, chemistry not fully specified) | 437.264 | 0.867 | 0.770 |  | 
CUG (mC*mU*mG) | 264.072 |  | 0.870 |  | 
mGmUmG (mG*mU*mG) [GUG, 3-mer 2′OMe PS oligo] | 158.982 |  | 0.786 |  | 
mG*mC*mG*mG*mU*A*T*C*C*A*T*G*T*C*C*mC*mA*mG*mG*mC (mG*mC*mG*mG*mU*dA*dT*dC*dC*dA*dT*dG*dT*dC*dC*mC*mA*mG*mG*mC; antisense) [C2-Mut1] |  |  |  |  | 62
